# Measurements: patent publication US9260391B2, “Hypoglycemic dihydropyridones” (The Trustees of Columbia University in the City of New York, priority 2008, dated 2016)
# “Also recorded” adds a separate entry of the source.
# How the values were obtained:
# [1] = test system: human islets; experiment: Glucose-stimulated insulin secretion of purified human cadaveric islets ex vivo; assay type: cell-based; settings: high glucose media; ELISA
# Experimental: The islet tissue used in these studies was obtained with institutional review board approval. Pancreas digestion and islet isolation were performed using minor modifications of the Edmonton purification protocol. (Shapiro, […] al. “Islet […] in seven patients with type I diabetes mellitus using a glucocortoid-free immunosuppressive regimen.” New England Journal of Medicine 343(4):230-8, (2000)) The determination of islet cell mass, viability, and purity were also performed. Purified islets were cultured in CMRL 1066 culture media with 10% fetal bovine serum at 37° C. in humidified air (5% CO2) for 18 to 24 hours. The human islet insulin secretory response was performed according to a procedure described by the Edmonton group. (Id.) Briefly, after an overnight culture, islets were incubated with either low or high concentrations of glucose for 2 hours at 37° C. and 5% CO2. The supernatant was collected for insulin measurement. Insulin concentrations in these experiments were analyzed with a human insulin enzyme-linked immunosorbent assay (ELISA) kit (ALPCO Insulin ELISA kit, Windham, N.H.). In some experiments TBZ, DTBZ or epinephrine was added to the cultures before glucose stimulation.
# [2] = test system: Lewis rats; experiment: IPGTT of analogs HG-1 to HG-11, compounds given orally (FIG. 15); assay type: in vivo, rat; settings: 2 mg/kg orally
# Experimental: FIG. 15 is a bar graph showing the results of testing various analogs HG-1 to HG-11 in IPGTT glucose tolerance tests in rats. Results for TBZ, emetine, and olanzapine are also shown. Lewis rats fasted for 6 hours were administered the compounds orally (30 min, 2 mg/kg) followed by intraperitoneal glucose injection (0 min, […]), and plasma glucose levels were monitored for 120 mins. Results are presented as AUC percentage of the vehicle. Error bars indicate SEM (n=5).
# Racemic HG-2 and its diastereoisomer HG-1 were evaluated for their ability to improve glucose tolerance by performing intraperitoneal glucose tolerance tests (IPGTT) in rats. IPGTT testing is described above. See also Murthy, R., et al., Eur. J. Nucl. Med. Mol. Imaging, 2008, 35(4), 790-797.
# [3] = target: T1, VMAT2 in beta cells (Rattus norvegicus, UniProt Q01827); experiment: PET study: displacement of [11C]DTBZ in the pancreas by cold analog; assay type: in vivo; settings: cold compound 2 mg/kg injected 30 min after radioligand; relative to DTBZ
# T1 construct: from tissue; host or cells: pancreas (beta cells) of living Lewis rats
# T1 sequence (Q01827 whole entry): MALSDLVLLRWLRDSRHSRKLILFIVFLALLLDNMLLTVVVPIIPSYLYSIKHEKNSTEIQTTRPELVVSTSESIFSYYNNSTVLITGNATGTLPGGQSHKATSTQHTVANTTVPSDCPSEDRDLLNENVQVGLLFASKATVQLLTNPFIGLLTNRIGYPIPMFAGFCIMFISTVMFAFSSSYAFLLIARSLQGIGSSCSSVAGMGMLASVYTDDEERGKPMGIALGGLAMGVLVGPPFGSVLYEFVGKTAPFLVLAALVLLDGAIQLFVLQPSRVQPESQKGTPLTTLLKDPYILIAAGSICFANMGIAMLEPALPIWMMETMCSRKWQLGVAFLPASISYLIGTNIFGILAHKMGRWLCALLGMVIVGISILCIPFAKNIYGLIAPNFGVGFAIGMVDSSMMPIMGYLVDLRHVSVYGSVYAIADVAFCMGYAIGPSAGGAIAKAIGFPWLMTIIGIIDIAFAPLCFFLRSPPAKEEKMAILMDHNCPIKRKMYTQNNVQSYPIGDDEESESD
# Experimental: PET scans were performed on anesthetized 12-14 week old Lewis male rats injected with radioligand [^11C]DTBZ (0 min, 0.5-1.0 μCi/gm body weight, specific activity >[…]) and cold compound 8 (HG-3) (30 mins, 2 mg/kg). The fraction of radioligand in the pancreas relative to the total amount injected was calculated and plotted versus time after injection. Error bars indicate SEM (n=3).
# To test binding to VMAT2 in beta cells, PET scans were performed on 12-14 week old Lewis Male rats. Prior to imaging, the animals were anesthetized by isoflurane inhalation. After a transmission scan of the area of interest had been acquired (used to perform attenuation correction of the emission data), the radioligand [11C]DTBZ was administered (0.5-1.0 μCi/gm) in saline as bolus injection via the penile vein. PET scans of the animals were acquired dynamically to 90 min post injection on a Concorde microPET-R4 (CTI Molecular Imaging, Knoxville, Tenn., USA). The scanner provided a 100×80 mm field of view with a reconstructed resolution of 2.25 mm in the central 40 mm of the field of view. At thirty minutes post injection of [11C]DTBZ, the animals received a second injection via the penile vein of cold analog. […]
# [4] = target: T2, dipeptidyl peptidase IV (DDP-IV) (Homo sapiens, UniProt P27487); experiment: Effect on dipeptidyl peptidase IV in vitro (BPS Bioscience assays); assay type: biochemical; settings: concentrations up to 10 μM; data not shown
# T2 construct: purchased BPS Bioscience, Inc. (San Diego, Calif.)
# T2 sequence (P27487 whole entry): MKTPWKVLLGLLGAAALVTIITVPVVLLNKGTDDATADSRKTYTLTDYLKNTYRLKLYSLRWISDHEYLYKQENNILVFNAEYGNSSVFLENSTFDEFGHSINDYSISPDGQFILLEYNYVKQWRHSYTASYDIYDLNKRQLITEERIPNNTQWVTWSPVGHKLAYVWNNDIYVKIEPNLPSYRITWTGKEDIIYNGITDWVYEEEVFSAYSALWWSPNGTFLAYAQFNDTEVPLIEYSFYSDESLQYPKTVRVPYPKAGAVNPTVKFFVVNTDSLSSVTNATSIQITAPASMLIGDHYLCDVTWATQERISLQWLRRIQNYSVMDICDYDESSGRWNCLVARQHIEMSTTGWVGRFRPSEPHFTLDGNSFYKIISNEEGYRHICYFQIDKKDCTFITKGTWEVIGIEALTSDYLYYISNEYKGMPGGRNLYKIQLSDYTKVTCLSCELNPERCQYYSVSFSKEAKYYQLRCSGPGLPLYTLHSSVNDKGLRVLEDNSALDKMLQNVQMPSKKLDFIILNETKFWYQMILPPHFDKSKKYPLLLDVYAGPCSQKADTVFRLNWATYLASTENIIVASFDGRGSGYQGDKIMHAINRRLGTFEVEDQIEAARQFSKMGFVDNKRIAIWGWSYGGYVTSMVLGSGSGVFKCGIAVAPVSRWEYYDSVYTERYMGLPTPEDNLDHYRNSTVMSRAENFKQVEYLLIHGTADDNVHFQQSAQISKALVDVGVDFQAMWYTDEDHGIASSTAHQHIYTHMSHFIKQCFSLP
# Experimental: The effect of HG-3 on DDP-IV was determined by assays provided by BPS Bioscience, Inc. (San Diego, Calif.).
compound,measurement,setting,value
"COc1cc2c(cc1OC)[C@@H]1C[C@H](O)[C@@H](CC(C)C)CN1CC2 [DTBZ, dihydrotetrabenazine]",insulin secretion by human islets after stimulation by high concentrations of glucose,[1],significantly enhanced the amount of insulin secreted; also recorded: enhances glucose-stimulated insulin secretion
"COc1ccc(C2CC(OCC(C)C)=CC(=O)N2)cc1OC (stereo not shown) [HG-3, 6-(3,4-dimethoxyphenyl)-4-isobutoxy-5,6-dihydropyridin-2(1H)-one]",decrease of the AUC IPGTT (area under the blood glucose concentration-time curve),"[2]; 30 min before i.p. glucose, relative to vehicle, n=5",45%
same,hypoglycemic activity in IPGTT compared with TBZ / HG-3,[2]; FIG. 15,potent hypoglycemic effect; also recorded: significant decrease in blood glucose levels as compared to TBZ
same,displacement of [11C]DTBZ in the endocrine pancreas / binding to VMAT2,[3],did not significantly displace
same,effect on DDP-IV in vitro,[4],negative
COc1ccc(C2CC(O)C(CC(C)C)C(=O)N2)cc1OC (stereo not shown) [HG-4],displacement of [11C]DTBZ in the endocrine pancreas / binding to VMAT2,[3],weak binding
"CNC[C@H](O)c1ccc(O)c(O)c1 [epinephrine, L-epinephrine bitartrate]",insulin secretion by human islets after stimulation by high concentrations of glucose,[1],inhibited secretion of insulin
